Results taken from the NIST ThermoML archive (doi:10.1016/j.fluid.2007.07.016).

Test: xn = mol fraction of the nth substance listed
Details: 101 kPa, Liquid; for viscosity: Capillary tube (Ostwald / Ubbelohde) method; for speed of sound: Linear variable-path acoustic interferometer

C1CCOC1 [tetrahydrofuran] + c1ccccc1
Details | speed of sound, 288.15 K [m/s] | speed of sound, 298.15 K [m/s] | speed of sound, 308.15 K [m/s] | speed of sound, 318.15 K [m/s] | viscosity, 288.15 K [mPa·s] | viscosity, 298.15 K [mPa·s] | viscosity, 308.15 K [mPa·s] | viscosity, 318.15 K [mPa·s]
x1 = 0.0754 | 1351.7 | 1302.5 | 1256 | 1206.1 | 0.6847 | 0.5973 | 0.536 | 0.4667
x1 = 0.1518 | 1350.7 | 1301.4 | 1254.7 | 1205.1 | 0.6762 | 0.5921 | 0.533 | 0.4665
x1 = 0.223 | 1349.8 | 1300.6 | 1253.6 | 1204.3 | 0.6673 | 0.5863 | 0.529 | 0.4659
x1 = 0.2962 | 1348.5 | 1299.3 | 1252.2 | 1203.2 | 0.6573 | 0.5793 | 0.5237 | 0.4637
x1 = 0.3556 | 1347.4 | 1298.4 | 1251.3 | 1202.5 | 0.6484 | 0.5728 | 0.5186 | 0.4609
x1 = 0.4128 | 1346.3 | 1297.5 | 1250.3 | 1201.8 | 0.6394 | 0.5659 | 0.5128 | 0.4574
x1 = 0.4812 | 1344.6 | 1296 | 1248.8 | 1200.7 | 0.6277 | 0.5568 | 0.505 | 0.4522
x1 = 0.5506 | 1342.7 | 1294.3 | 1247.1 | 1199.4 | 0.6151 | 0.5467 | 0.4961 | 0.4457
x1 = 0.6219 | 1340.5 | 1292.4 | 1245.1 | 1197.8 | 0.6013 | 0.5353 | 0.4858 | 0.4379
x1 = 0.6884 | 1338 | 1290.2 | 1243 | 1196.1 | 0.5875 | 0.5237 | 0.4752 | 0.4295
x1 = 0.7512 | 1335.3 | 1287.9 | 1240.8 | 1194.4 | 0.5739 | 0.512 | 0.4643 | 0.4207
x1 = 0.8119 | 1332.7 | 1285.5 | 1238.6 | 1192.7 | 0.56 | 0.4999 | 0.4529 | 0.4112
x1 = 0.8792 | 1329.3 | 1282.7 | 1236.1 | 1190.7 | 0.5439 | 0.4857 | 0.4394 | 0.3996
x1 = 0.9388 | 1326.3 | 1280.1 | 1233.8 | 1188.9 | 0.5289 | 0.4724 | 0.4265 | 0.3885
x1 = 1 | 1323.1 | 1277.6 | 1231.5 | 1187.2 | 0.5129 | 0.458 | 0.4125 | 0.3762
